Assay type in all cases: cell-based
Test [1] relates to AML cells (HEL). Description: Cell growth inhibition by MTT assay. How it is done: (§1) Cell growth inhibition was monitored by MTT (MTT (3-[4,5-dimethylthiazol-2-yl]-2,5-diphenyltetrazolium bromide) assay post treatment. Cells (5000) were treated by CD117 Apt-MTX or equal molar free MTX in RPMI 1640 medium for 2 h. After replacement with fresh medium containing 10% serum, cells were cultured for an additional 48 hours and then 10 μl of MTT solution (5 mg/mL in PBS) were added to each well. After a further 4 h of incubation, the culture medium was removed and the formazan crystals in the cells were solubilized with 100 μl of DMSO for 15 minutes. The UV absorbance at 570 nm was measured with a microplate reader.
(Formazan colour is commonly taken as a measure of viable cells.)

Test [2] concerns CD117-negative control cells (U937). Description: Cell growth inhibition by MTT assay. How it is done:
as §1

For test [3] the test system is unchanged. Description: Apoptosis assay, Annexin V staining, flow cytometry. As to conditions: 10 nM MTX payload or equal molar. The protocol: (§2) Treated cells also were investigated by apoptosis assay. Annexin V-APC staining (BD Biosciences, San Jose, Calif.) was performed according to the manufacturer's instructions. The cell samples were analyzed using a FACS caliber (BD Biociences, San Jose, Calif., USA) flow cytometry equipped with cellquest software.

Test [4] has as its system HEL cells. The description is as above. As to conditions: 10 nM MTX payload or equal molar. The protocol: as §2

`CN(Cc1cnc2nc(N)nc(N)c2n1)c1ccc(C(=O)N[C@@H](CCC(=O)O)C(=O)O)cc1` [free MTX, Methotrexate]: the inhibition entry in test [1] (100 nM final concentration) is “about 30%”; in test [2] (U937, 100 nM final concentration) it was “about 30%”. For the same compound, the “effect on cell proliferation (in words)” value in test [1] (equal molar (10 nM MTX), treated 2 hours, cultured 48 hr) is “minimal effect on both cells”; in test [2] (U937, 10 nM MTX, treated 2 hours, cultured 48 hr), “minimal effect on both cells”. In addition, in test [3], the “cell apoptosis / toxicity” value is “minimal effect on both HEL and control cells”. Besides, in test [4], the cell apoptosis result was “minimal effect on both HEL and control cells”.
